Results published in patent US12043599B2, “Herbicidal compounds” (SYNGENTA PARTICIPATIONS AG, priority 2018, dated 2024).

Experiments:
Format in all cases: in vivo
Setaria faberi (SETFA) [1] = test: Post-emergence herbicidal glasshouse test, percentage damage; conditions: for SETFA POST percentage damage (five point scale): 250 g/h, evaluated after 13 days
Summary of the method: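 Percentage damage was scored 13 days after treatment on a five-point scale (1=0-19% to 5=80-100%). Treatments were post-emergence sprays on 8-day-old wheat, barley and SETFA plants in a glasshouse (24/16 °C day/night, 14 h light, 65% humidity), using acetone/water 50:50 with 0.5% Tween 20 at the stated rates. Wheat additionally received cloquintocet-mexyl safener at 50 g/ha.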

wheat = test: Post-emergence crop safety test on wheat crop plants
Experimental: (§1) Seeds of a variety of test species are sown in standard soil in pots (Lolium perenne (LOLPE), Setaria faberi (SETFA), Alopecurus myosuroides (ALOMY), Echinochloa crus-galli (ECHCG), Avena fatua (AVEFA)). After cultivation for one day (pre-emergence) or after 8 days cultivation (post-emergence) under controlled conditions in a glasshouse (at 24/16° C., day/night; 14 hours light; 65% humidity), the plants are sprayed with an aqueous spray solution derived from the formulation of the technical active ingredient in acetone/water (50:50) solution containing 0.5% Tween 20 (polyoxyethelyene sorbitan monolaurate, CAS RN 9005-64-5). Compounds are applied at […]. The test plants are then grown in a glasshouse under controlled conditions in a glasshouse (at 24/16° C., day/night; 14 hours light; 65% humidity) and watered twice daily. After 13 days for pre and post-emergence, the test is evaluated for the percentage damage caused to the plant. The biological activities are shown in the following table on a five point scale (5=80-100%; 4=60-79%; 3=40-59%; 2=20-39%; 1=0-19%).
Using procedures outlines above, wheat and barley crop plants and a weed species (SETFA) are treated post-emergence with compound A11 of the present invention or comparator compound C1 (Compound A-38 from WO2014/096289) at the application rates indicated. The compounds were also applied to wheat in conjunction with the safener compound cloquintocet-mexyl (CQC) at 50 g/ha.

barley = test: Post-emergence crop safety test on barley crop plants
Experimental: as §1
Using procedures outlines above, wheat and barley crop plants and a weed species (SETFA) are treated post-emergence with compound A11 of the present invention or comparator compound C1 (Compound A-38 from WO2014/096289) at the application rates indicated. […]

[2] = tested on: Alopecurus myosuroides (ALOMY); test: Pre-emergence herbicidal glasshouse test, percentage damage; conditions: 250 g/h, evaluated after 13 days
Summary of the method: (§2)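 Each compound is sprayed at 250 g/h on pots either 1 or 8 days after sowing (pre- and post-emergence respectively). Growth under controlled glasshouse conditions, 24/16 °C day/night and 65% humidity, continues for 13 days before damage is rated on a five-point scale.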

Avena fatua (AVEFA) [3] = test: as above; conditions: 250 g/h, evaluated after 13 days
Summary of the method: as §2

[4] = tested on: Echinochloa crus-galli (ECHCG); test: as above; conditions: 250 g/h, evaluated after 13 days
Summary of the method: as §2

Lolium perenne (LOLPE) [5] = test: as above; conditions: 250 g/h, evaluated after 13 days
Summary of the method: as §2

Setaria faberi (SETFA) [6] = test: as above; conditions: 250 g/h, evaluated after 13 days
Summary of the method: as §2

[7] = tested on: Alopecurus myosuroides (ALOMY); test: Post-emergence herbicidal glasshouse test, percentage damage; conditions: 250 g/h, evaluated after 13 days
Summary of the method: as §2

Avena fatua (AVEFA) [8] = test: as above; conditions: 250 g/h, evaluated after 13 days
Summary of the method: as §2

[9] = tested on: Echinochloa crus-galli (ECHCG); test: as above; conditions: 250 g/h, evaluated after 13 days
Summary of the method: as §2

Lolium perenne (LOLPE) [10] = test: as above; conditions: 250 g/h, evaluated after 13 days
Summary of the method: as §2

Row | SMILES | overall weed control (Setaria faberi (SETFA) [1]) | SETFA, percentage damage (Setaria faberi (SETFA) [1]; rate 30) [%] | SETFA, percentage damage (Setaria faberi (SETFA) [1]; rate 60) [%] | Wheat, percentage damage (wheat; rate 30) [%] | Wheat, percentage damage (wheat; rate 60) [%] | Wheat, percentage damage (wheat; rate 60 + CQC (safener cloquintocet-mexyl at 50 g/ha)) [%] | crop safety vis-à-vis prior art compound C1 (wheat; wheat and barley) | Barley, percentage damage (barley; rate 30) [%] | Barley, percentage damage (barley; rate 60) [%] | ALOMY PRE percentage damage (five point scale) [2] | AVEFA PRE percentage damage (five point scale) (Avena fatua (AVEFA) [3]) | ECHCG PRE percentage damage (five point scale) [4] | LOLPE PRE percentage damage (five point scale) (Lolium perenne (LOLPE) [5]) | SETFA PRE percentage damage (five point scale) (Setaria faberi (SETFA) [6]) | SETFA POST percentage damage (five point scale) (Setaria faberi (SETFA) [1]) | ALOMY POST percentage damage (five point scale) [7] | AVEFA POST percentage damage (five point scale) (Avena fatua (AVEFA) [8]) | ECHCG POST percentage damage (five point scale) [9] | LOLPE POST percentage damage (five point scale) (Lolium perenne (LOLPE) [10])
1 | CC#Cc1cc(C)c(C2C(=O)CC3(CCN(C(=O)OC)CC3)CC2=O)c(C)c1 [Compound A11] | good overall weed control | 100 | 100 | 10 | 30 | 0 | significantly improved crop safety | 10 | 40 |  |  |  |  |  |  |  |  |  | 
2 | CC#Cc1cc(C)c(C2C(=O)CC3(CCN(C(=O)[C@@H](C)OC)CC3)CC2=O)c(C)c1 [Compound A154] |  |  |  |  |  |  |  |  |  | 5 (5=80-100%) | 5 (5=80-100%) | 5 (5=80-100%) | 5 (5=80-100%) | 5 (5=80-100%) | 5 (5=80-100%) | 5 (5=80-100%) | 5 (5=80-100%) | 5 (5=80-100%) | 5 (5=80-100%)
3 | CC#Cc1cc(C)c(C2C(=O)CC3(CCN(c4ncccn4)CC3)CC2=O)c(C)c1 [Compound A37] |  |  |  |  |  |  |  |  |  | 5 (5=80-100%) | 4 (4=60-79%) | 5 (5=80-100%) | 5 (5=80-100%) | 5 (5=80-100%) | 5 (5=80-100%) | 5 (5=80-100%) | 5 (5=80-100%) | 5 (5=80-100%) | 5 (5=80-100%)
4 | CC#Cc1cc(C)c(C2=C(OC(=O)OC)CC3(CCN(C(=O)NC(C)(C)C)CC3)CC2=O)c(C)c1 [Compound P13] |  |  |  |  |  |  |  |  |  | 5 (5=80-100%) | 5 (5=80-100%) | 5 (5=80-100%) | 5 (5=80-100%) | 5 (5=80-100%) | 5 (5=80-100%) | 5 (5=80-100%) | 5 (5=80-100%) | 5 (5=80-100%) | 5 (5=80-100%)
5 | CC#Cc1cc(C)c(C2C(=O)CC3(CCN(C(=O)NC(C)(C)CC)CC3)CC2=O)c(C)c1 [Compound A169] |  |  |  |  |  |  |  |  |  | 5 (5=80-100%) | 5 (5=80-100%) | 5 (5=80-100%) | 5 (5=80-100%) | 5 (5=80-100%) | 5 (5=80-100%) | 5 (5=80-100%) | 5 (5=80-100%) | 5 (5=80-100%) | 5 (5=80-100%)
6 | CC#Cc1cc(C)c(C2C(=O)CC3(CCN(C(=O)NC(=O)c4cccnc4)CC3)CC2=O)c(C)c1 [Compound A145] |  |  |  |  |  |  |  |  |  | 3 (3=40-59%) | 2 (2=20-39%) | 5 (5=80-100%) | 4 (4=60-79%) | 5 (5=80-100%) | 5 (5=80-100%) | 5 (5=80-100%) | 5 (5=80-100%) | 5 (5=80-100%) | 5 (5=80-100%)
